The values that follow come from ChEMBL document CHEMBL1201862, “PubChem BioAssay data set” (2004).

Active and inactive are the calls of the source.

Assay [1] relates to HEK293. The assay is described as follows: optical interference in Abeta FP readout, dose response, artefact control for IDE activator project, biochemical, fluorescence polarization (AID 588442). The assay is classed as functional, cell-based. Conditions: Homo sapiens.
For assay [2], the target named is T1, Insulin-degrading enzyme (Homo sapiens, UniProt P14735).
T1 sequence (P14735 whole entry): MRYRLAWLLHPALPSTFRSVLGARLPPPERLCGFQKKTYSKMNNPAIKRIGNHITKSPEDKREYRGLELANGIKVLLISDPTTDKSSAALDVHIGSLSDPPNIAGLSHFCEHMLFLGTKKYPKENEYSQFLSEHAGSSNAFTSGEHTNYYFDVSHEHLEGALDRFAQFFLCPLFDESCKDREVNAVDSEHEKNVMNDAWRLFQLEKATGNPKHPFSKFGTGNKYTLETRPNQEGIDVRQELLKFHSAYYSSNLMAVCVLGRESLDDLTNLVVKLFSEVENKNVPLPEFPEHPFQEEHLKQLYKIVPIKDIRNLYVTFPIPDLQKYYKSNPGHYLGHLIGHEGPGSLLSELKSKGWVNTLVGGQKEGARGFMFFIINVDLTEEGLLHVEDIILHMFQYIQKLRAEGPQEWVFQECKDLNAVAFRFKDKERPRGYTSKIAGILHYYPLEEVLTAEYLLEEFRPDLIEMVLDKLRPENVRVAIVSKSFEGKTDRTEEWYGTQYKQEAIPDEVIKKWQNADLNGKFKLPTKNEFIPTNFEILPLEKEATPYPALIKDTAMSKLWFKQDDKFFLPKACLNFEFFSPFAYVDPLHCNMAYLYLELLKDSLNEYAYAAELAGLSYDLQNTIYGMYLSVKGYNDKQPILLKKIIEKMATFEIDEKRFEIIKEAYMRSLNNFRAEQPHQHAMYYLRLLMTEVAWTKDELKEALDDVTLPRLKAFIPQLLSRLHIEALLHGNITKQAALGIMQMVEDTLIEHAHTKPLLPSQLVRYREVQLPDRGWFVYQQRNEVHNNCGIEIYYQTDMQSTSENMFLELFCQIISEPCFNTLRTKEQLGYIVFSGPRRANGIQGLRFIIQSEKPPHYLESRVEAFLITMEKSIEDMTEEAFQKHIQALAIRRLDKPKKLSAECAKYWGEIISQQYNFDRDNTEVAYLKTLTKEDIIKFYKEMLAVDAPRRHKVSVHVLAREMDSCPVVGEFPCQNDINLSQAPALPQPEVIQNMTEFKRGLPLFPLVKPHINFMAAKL
The assay is described as follows: recombinant IDE activation, cell-free – biochemical, fluorescence polarization, counter-screen for IDE activator project, dose response (AID 588681).

A short description of assay [3]: Luminescence Cell-Based Dose Response HTS to Identify Activators of Luciferase Translation or Activity in H4 […] Cells. [Related pubchem assays: 1829 (Project Summary), 1814 (Primary HTS)]. It is filed as functional.
The subject of assay [4] is HEK293. Description: membrane integrity loss in HEK cells – cell-based, fluorescence, cytotoxicity control for IDE activator project, dose response (AID 588440).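 Also: cytotoxicity by LDH release measuring loss of membrane integrity.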 The assay is classed as functional. Conditions: Homo sapiens.
In a further assay the test system is H4. Description: Luminescence Cell-Based Dose Response HTS to Identify Activators of 5'UTR Stem-Loop Driven Prion Protein mRNA Translation in H4 Neuroglioblastoma Cells. [Related pubchem assays: 1829 (Project Summary), 1814 (Primary HTS)]. It is filed as functional. Conditions: Homo sapiens.
The target in assay [5] is T1, Insulin-degrading enzyme. Description: cellular IDE activation of Abeta substrate cleavage – fluorescence polarization, HEK cells, dose response (AID 588439). The assay is classed as functional, cell-based.
Assay [6] is described as follows: Luminescence Cell-Based Dose Confirmation HTS to Identify Activators of 5'UTR Stem-Loop Driven Alpha-Synuclein mRNA Translation in H4 Neuroglioblastoma Cells. [Related pubchem assays: 1829 (Project Summary), 1814 (Primary HTS)]. It is filed as functional.
Assay [7] has as its target T2, High affinity choline transporter 1 (Homo sapiens, UniProt Q9GZV3).
T2 sequence (Q9GZV3 whole entry): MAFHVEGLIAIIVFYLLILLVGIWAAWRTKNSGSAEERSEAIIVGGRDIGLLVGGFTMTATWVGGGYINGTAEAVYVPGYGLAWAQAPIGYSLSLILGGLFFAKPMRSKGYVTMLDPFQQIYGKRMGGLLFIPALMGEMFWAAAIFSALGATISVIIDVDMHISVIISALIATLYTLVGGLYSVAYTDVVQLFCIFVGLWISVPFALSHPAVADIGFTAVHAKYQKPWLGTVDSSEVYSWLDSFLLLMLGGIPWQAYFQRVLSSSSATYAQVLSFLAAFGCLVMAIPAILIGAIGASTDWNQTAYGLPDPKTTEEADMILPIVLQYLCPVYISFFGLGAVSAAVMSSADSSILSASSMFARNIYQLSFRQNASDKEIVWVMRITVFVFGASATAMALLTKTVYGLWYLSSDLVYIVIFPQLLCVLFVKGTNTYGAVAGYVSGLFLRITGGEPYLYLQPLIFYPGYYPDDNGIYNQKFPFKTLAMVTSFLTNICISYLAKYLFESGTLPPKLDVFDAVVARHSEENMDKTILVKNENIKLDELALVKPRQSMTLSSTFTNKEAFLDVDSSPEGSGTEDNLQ
The assay is described as follows: human choline transporter blockers, potency – cell-based, 10-point CRC, membrane potential dye, dose response (AID 588401).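 Also: membrane potential dye fluorescence of choline-evoked depolarization via CHT.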 The assay is classed as functional.

Assay [8] has as its target T2, High affinity choline transporter 1. The assay is described as follows: human choline transporter blockers, potency – cell-based, 5-point CRC, membrane potential dye, dose response (AID 504840). The assay is classed as functional.
The target in a further assay is Cytochrome P450 3A4 (Homo sapiens, UniProt P08684).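 Also: CYP3A4 tested as one member of a cytochrome P450 panel screen.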
For another assay, the target named is Cytochrome P450 2C9 (Homo sapiens, UniProt P11712).
The target in assay [9] is T3, Melanocortin receptor 4 (Homo sapiens, UniProt P32245). The assay is classed as functional, cell-based.
The target of the next assay is Cytochrome P450 2D6 (Homo sapiens, UniProt P10635).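 Also: CYP2D6 member of a cytochrome P450 panel assay.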
A further assay deals with Estrogen receptor beta (Homo sapiens, UniProt Q92731).
For assay [10], the target named is T3, Melanocortin receptor 4. Description: inhibitors of MC4R cAMP signaling – cell-based, TR-FRET, biased antagonists, dose response (AID 602298).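 Also: antagonist potency against agonist-stimulated cAMP production.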 The assay is classed as functional.
The nature of assay [11]: cAMP pathway inhibition in counterscreen cell line – TR-FRET cAMP detection, counter-screen for MC4R biased antagonist project, dose response (AID 602305).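 Also: U2OS cells stimulated with forskolin near its EC80 as the cAMP inducer; potency is for inhibition of forskolin-stimulated cAMP signaling.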 The assay is classed as functional, cell-based.
In a further assay the test system is INS1. Description: suppression of NO production in INS-1E cells – cell-based, Griess absorbance, dry powder, set 2, dose response (AID 488868). The assay is classed as functional. Conditions: Rattus norvegicus.
The nature of assay [12]: suppression of NO production in INS-1E cells – cell-based, Griess absorbance, dry powder, set 3, dose response (AID 488870). Conditions: Rattus norvegicus. The assay is classed as functional.
Assay [13] can be described thus: P. falciparum Dd2 growth inhibitors, dose response, SYBR Green, cherry-picked samples (AID 1159567). The assay is classed as functional, cell-based.
Assay [14] has as its target T4, Apoptotic protease-activating factor 1 (Homo sapiens, UniProt O14727).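 Also: caspase-3 cleavage of fluorogenic Rh110 DEVD substrate downstream of apoptosome activation.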
T4 sequence (O14727 whole entry): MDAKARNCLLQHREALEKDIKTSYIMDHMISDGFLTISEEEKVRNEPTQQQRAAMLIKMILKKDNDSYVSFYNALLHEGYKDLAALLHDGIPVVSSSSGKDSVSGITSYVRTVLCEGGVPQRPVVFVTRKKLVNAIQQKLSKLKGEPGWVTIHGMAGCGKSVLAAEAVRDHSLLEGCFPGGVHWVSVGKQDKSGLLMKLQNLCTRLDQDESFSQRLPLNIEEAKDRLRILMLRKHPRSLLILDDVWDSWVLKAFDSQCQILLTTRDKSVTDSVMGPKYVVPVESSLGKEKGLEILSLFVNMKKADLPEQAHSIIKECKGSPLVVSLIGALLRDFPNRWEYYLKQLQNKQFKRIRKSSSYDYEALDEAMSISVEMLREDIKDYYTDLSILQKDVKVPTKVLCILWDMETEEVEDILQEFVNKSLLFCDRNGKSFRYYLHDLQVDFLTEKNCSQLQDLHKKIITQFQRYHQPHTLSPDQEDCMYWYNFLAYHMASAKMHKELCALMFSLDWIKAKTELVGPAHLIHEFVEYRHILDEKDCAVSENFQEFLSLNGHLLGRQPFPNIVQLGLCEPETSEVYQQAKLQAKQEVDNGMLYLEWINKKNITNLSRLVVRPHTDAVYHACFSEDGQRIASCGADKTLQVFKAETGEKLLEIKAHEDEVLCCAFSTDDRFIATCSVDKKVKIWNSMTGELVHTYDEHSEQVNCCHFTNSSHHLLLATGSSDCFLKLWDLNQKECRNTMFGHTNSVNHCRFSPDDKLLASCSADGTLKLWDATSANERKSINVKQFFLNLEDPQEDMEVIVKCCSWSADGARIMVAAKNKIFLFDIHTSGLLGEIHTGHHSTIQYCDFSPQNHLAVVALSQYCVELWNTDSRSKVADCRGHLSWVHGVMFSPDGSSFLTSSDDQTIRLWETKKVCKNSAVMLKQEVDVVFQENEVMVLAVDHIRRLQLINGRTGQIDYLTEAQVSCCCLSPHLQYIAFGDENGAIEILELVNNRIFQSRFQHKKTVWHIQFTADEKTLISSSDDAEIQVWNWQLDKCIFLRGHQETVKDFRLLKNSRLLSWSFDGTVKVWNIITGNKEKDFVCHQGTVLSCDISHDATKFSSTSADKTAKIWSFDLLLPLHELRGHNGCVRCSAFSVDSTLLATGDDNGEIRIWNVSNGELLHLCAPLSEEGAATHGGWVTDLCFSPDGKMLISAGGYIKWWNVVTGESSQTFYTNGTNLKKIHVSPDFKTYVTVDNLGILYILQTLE
The assay is described as follows: SAR analysis of small molecule Activators of Apaf-1 in a Fluorescent assay. The assay is classed as functional. Conditions: read-out: EC50_Mean.

The target of another assay is Aurora kinase A (Homo sapiens, UniProt O14965). The assay is classed as functional.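 Also: value from the Navigating the Kinome kinase panel profiling, panel entry STK6.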
The next assay concerns the target Aurora kinase B (Homo sapiens, UniProt Q96GD4). The assay is classed as functional.
Assay [15] has as its target Receptor-type tyrosine-protein kinase FLT3 (Homo sapiens, UniProt P36888). It is filed as functional.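 Also: FLT3 was tested as one member of a kinome-wide kinase panel.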
Assay [16] concerns the target Serine/threonine-protein kinase pim-1 (Homo sapiens, UniProt P11309). It is filed as functional.

T3 sequence (P32245 whole entry): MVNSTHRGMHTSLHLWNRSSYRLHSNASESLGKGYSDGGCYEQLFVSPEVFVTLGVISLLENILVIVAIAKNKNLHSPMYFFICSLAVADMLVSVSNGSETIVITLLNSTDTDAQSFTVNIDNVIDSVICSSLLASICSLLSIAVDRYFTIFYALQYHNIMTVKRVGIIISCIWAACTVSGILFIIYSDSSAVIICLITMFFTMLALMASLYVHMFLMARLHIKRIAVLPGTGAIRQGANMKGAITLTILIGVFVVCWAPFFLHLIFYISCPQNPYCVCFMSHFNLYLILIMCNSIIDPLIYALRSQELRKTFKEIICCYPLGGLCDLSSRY
Chain of Cytochrome P450 3A4 (P08684 whole entry): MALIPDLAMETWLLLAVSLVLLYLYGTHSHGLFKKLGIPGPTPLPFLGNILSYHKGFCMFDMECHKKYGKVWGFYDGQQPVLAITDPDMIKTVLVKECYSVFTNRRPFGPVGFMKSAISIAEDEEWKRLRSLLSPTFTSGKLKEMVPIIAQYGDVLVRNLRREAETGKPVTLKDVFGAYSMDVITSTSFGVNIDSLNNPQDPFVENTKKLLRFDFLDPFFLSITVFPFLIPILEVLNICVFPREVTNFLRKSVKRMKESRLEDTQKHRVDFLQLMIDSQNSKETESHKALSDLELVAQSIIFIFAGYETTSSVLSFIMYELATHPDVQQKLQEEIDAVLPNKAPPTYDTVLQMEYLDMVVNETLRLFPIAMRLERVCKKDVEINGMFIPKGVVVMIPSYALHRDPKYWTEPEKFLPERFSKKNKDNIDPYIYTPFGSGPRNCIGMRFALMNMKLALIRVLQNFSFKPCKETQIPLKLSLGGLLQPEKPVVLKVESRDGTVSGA
Chain of Aurora kinase B (Q96GD4 whole entry): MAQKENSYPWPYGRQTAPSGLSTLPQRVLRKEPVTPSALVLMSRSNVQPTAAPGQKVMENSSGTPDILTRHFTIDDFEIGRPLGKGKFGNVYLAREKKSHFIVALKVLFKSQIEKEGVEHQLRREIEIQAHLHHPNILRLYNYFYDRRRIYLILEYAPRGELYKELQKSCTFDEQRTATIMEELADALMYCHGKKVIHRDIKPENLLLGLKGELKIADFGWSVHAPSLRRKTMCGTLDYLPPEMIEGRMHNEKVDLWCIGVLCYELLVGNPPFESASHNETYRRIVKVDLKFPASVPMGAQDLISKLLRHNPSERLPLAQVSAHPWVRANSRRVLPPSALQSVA
Chain of Cytochrome P450 2D6 (P10635 whole entry): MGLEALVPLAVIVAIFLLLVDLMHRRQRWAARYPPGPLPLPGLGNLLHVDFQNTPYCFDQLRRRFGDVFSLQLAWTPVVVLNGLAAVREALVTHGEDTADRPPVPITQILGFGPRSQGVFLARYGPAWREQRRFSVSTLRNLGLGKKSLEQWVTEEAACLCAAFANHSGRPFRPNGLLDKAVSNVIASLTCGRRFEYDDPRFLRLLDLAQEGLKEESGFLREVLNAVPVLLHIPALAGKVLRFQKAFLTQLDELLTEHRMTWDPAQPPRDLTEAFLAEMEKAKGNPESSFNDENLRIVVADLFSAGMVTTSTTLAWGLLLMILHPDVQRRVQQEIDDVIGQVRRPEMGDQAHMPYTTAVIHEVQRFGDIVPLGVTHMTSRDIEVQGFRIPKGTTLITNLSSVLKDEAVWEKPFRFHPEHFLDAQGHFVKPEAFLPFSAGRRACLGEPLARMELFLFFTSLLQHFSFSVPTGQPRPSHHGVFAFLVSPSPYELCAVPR
Chain of Cytochrome P450 2C9 (P11712 whole entry): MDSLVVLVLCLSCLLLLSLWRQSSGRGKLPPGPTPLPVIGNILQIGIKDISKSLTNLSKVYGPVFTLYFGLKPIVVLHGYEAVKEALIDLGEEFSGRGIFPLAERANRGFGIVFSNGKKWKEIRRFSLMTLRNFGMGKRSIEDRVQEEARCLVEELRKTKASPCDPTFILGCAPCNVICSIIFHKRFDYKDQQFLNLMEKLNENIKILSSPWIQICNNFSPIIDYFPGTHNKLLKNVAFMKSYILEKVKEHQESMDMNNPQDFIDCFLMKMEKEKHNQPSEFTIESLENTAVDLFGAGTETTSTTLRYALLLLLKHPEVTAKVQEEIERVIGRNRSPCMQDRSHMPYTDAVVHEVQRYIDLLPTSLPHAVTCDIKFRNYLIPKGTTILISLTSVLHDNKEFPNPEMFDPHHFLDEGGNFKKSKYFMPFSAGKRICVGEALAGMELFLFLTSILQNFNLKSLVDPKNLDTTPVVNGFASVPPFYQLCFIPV
Chain of Aurora kinase A (O14965 whole entry): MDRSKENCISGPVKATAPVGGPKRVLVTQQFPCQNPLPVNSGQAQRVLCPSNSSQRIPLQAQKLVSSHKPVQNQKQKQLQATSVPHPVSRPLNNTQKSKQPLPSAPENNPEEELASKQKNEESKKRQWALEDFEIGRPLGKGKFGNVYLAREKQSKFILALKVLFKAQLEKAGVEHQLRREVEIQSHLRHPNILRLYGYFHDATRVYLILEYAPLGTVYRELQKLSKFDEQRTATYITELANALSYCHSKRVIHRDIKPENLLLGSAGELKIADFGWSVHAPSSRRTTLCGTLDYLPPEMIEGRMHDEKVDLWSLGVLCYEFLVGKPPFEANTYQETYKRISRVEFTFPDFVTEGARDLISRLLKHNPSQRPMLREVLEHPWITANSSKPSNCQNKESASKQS
Chain of Receptor-type tyrosine-protein kinase FLT3 (P36888 whole entry): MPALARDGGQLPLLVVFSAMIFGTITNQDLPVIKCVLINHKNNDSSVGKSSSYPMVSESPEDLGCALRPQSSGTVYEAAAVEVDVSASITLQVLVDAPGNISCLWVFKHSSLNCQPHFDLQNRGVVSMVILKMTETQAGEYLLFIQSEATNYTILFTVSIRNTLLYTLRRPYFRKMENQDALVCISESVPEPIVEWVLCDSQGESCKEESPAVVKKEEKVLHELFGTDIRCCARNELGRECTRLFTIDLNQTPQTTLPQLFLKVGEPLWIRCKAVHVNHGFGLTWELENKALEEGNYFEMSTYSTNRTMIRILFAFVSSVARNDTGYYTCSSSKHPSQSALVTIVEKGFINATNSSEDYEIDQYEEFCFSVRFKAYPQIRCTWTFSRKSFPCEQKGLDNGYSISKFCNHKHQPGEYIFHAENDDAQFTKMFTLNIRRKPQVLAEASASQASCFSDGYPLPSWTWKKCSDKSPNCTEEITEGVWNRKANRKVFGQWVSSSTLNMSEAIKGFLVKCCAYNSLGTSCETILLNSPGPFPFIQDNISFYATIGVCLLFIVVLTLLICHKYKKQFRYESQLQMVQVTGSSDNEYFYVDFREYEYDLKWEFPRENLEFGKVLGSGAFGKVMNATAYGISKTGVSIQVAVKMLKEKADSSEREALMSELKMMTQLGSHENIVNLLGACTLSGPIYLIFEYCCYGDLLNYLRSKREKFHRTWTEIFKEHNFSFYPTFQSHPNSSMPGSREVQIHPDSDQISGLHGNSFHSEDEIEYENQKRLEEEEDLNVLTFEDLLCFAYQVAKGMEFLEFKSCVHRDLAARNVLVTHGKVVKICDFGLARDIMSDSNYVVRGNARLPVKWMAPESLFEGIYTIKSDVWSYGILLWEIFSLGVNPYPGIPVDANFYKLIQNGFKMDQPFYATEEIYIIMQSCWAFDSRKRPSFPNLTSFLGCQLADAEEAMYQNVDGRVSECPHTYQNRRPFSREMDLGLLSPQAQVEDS
Chain of Estrogen receptor beta (Q92731 whole entry): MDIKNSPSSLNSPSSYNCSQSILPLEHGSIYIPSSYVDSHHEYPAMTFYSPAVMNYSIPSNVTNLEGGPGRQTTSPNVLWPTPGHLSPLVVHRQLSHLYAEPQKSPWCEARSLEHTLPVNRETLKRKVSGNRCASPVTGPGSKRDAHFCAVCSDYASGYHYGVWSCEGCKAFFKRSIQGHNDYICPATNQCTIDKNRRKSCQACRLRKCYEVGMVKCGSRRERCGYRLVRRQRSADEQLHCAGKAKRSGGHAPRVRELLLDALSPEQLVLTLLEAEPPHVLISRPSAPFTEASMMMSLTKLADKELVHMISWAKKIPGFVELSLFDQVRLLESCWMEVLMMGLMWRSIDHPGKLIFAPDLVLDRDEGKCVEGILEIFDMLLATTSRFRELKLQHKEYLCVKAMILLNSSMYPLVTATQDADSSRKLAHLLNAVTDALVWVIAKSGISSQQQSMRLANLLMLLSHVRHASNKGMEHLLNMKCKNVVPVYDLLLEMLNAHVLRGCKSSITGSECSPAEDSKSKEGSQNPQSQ
Chain of Serine/threonine-protein kinase pim-1 (P11309 whole entry): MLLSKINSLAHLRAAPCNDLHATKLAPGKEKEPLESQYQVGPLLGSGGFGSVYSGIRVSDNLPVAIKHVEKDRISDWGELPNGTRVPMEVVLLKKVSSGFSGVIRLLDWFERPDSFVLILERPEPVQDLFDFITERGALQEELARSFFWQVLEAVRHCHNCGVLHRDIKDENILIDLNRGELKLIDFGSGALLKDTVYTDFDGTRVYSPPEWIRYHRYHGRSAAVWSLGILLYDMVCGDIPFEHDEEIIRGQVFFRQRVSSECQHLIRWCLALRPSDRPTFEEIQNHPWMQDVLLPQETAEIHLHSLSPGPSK

In the case of `Cc1ccc(NC(=O)C2C3C=CC4(CN(Cc5cccnc5)C(=O)C24)O3)cc1` (centres undefined), the EC50 with HEK293 [1] was > 55.9 µM (inactive); on Insulin-degrading enzyme [2], > 54.7 µM (inactive); in assay [3] it was 11.9 µM (active); in the assay with H4 it was 14 µM (active); at Insulin-degrading enzyme [5], > 54.7 µM (inactive); in [6], > 120 µM (not active). The IC50 with HEK293 [4] is > 89.2 µM (inactive).

As for `Cc1noc(C)c1COC(=O)c1cnc(Cl)c(Cl)c1`, the values for the IC50 in assay [7] and in assay [8] were 5.01 µM (active) and 10 µM (active), respectively.

Regarding `CCOc1cc(NC(=O)c2cccs2)c(OCC)cc1NC(=O)c1ccco1`, the half-maximal activity concentration (AC50) on Cytochrome P450 3A4 is 178 nM (inconclusive); at Cytochrome P450 2C9 it was 35.5 nM (inconclusive); on Cytochrome P450 2D6 it was 708 nM (inconclusive). Besides, at Melanocortin receptor 4 [9], the EC50 is > 89.1 µM (inactive). Besides, the IC50 at Estrogen receptor beta is on record as > 50 µM (not active).

`CCOC(=O)CCC(=O)Nc1ccc(S(=O)(=O)N2CCc3ccccc32)cc1`: the IC50 (on Melanocortin receptor 4 [10]; in assay [11]) was > 64.6 µM (inactive) each time.

`CCOC(=O)c1cc(C)nc(S(C)(=O)=O)c1C#N`: the IC50 (at Melanocortin receptor 4 [10]; in [11]) was > 64.6 µM (inactive) each time.

Take `COc1ccc(C(=O)C[n+]2cccc(C)c2)cc1`: the IC50 in [7] was 2.05 µM (active); in [8], 2.43 µM (active).

For the compound `C[C@@H]1CN([C@@H](C)CO)C(=O)c2cccc(NC(=O)Nc3cccc4ccccc34)c2O[C@H]1CN(C)C(=O)NC1CCCCC1`, the AC50 with INS1 is 24.6 µM (active); in assay [12], 37.8 µM (active); in assay [13] it was 5.39 µM (active).

On to `COc1ccccc1S(=O)(=O)N(C)C[C@@H]1Oc2c(NC(=O)Nc3cccc4ccccc34)cccc2C(=O)N([C@@H](C)CO)C[C@H]1C`, for which the concentration at half-maximal activity (AC50) in the assay with INS1 was 47.2 µM (active); in assay [12], 45.1 µM (active).

On to `O=C(O)c1coc(-c2ccc(F)cc2)n1`, for which, in assay [14], the EC50 is > 100 µM (inactive).

For the compound `Cc1cc(N=Cc2ccc(O)c(O)c2)c2ccccc2n1`, the inhibition constant Ki on Aurora kinase A is 25.1 nM (active); on Aurora kinase B, 6.31 nM (active).

On to `c1ccc(C2Cc3cn[nH]c3C2)cc1` (centres undefined), for which the Ki is 15.8 µM (active) in [15] and 79.4 µM (active) in assay [16].

In the case of `NC(=O)Cn1cc(/C=N\NS(=O)(=O)c2ccc(Cl)cc2)c2ccccc21`, the EC50 in the assay on HEK293 [1] is > 55.9 µM (inactive); at Insulin-degrading enzyme [2], > 54.7 µM (inactive); on Insulin-degrading enzyme [5], > 54.7 µM (inactive). For the same compound, the IC50 in the assay with HEK293 [4] was > 89.1 µM (inactive).
